Tests used:
RPMI-8226 target cells = assay: Acute co-culture cytokine secretion of anti-BCMA CAR T cells with RPMI-8226; type: cell-based, human; settings: RPMI-8226, E:T 1:1, 24 hours, 0.01-10,000 nM, FIG. 2A
Protocol: Anti-tumor effects of anti-BCMA CAR T cells, alone and in combination with cell immunomodulatory compounds Compound A (iberdomide, (S)-3-[4-(4-morpholin-4-ylmethyl-benzyloxy)-1-oxo-1,3-dihydro-isoindol-2-yl]-piperidine-2,6-dione) or Compound B ((S)-4-(4-(4-(((2-(2,6-dioxopiperidin-3-yl)-1-oxoisoindolin-4-yl)oxy)methyl)benzyl)piperazin-1-yl)-3-fluorobenzonitrile), were assessed in two different BCMA-expressing target multiple myeloma cell lines RPMI-8226 or OPM-2. Anti-BCMA CAR+ T cells were generated as described in Example 1.
The anti-BCMA CAR-expressing T cells were incubated with target cells, RPMI 8226 (BCMA^med human multiple myeloma cell line) or OPM2 cells (BCMA^med human multiple myeloma cell line) target cells, at an E:T ratio of 1:1. The co-culture incubation with target cells was carried out in the presence of Compound A (0.01 nM, 0.1 nM, 1 nM, 10 nM, 100 nM, 1000 nM, or 10,000 nM) or Compound B (0.01 nM, 0.1 nM, 1 nM, 10 nM, 100 nM, 1000 nM, or 10,000 nM).

[1] = test system: DF-15(R) (multiple myeloma) cells; assay: Murine orthotopic DF-15(R) tumor model (resistant), anti-BCMA CAR T cells plus Compound A; type: in vivo, mouse; settings: combination
Protocol: Anti-tumor effects of anti-BCMA CAR T cells, alone and in combination with concurrent or delayed administration of Compound A (iberdomide, (S)-3-[4-(4-morpholin ylmethyl-benzyloxy)-1-oxo-1,3-dihydro-isoindol-2-yl]-piperidine-2,6-dione), were assessed in disseminated tumor models. The combinatorial effects were assessed in both tumor models sensitive to and resistant to the immunomodulatory compound. The anti-BCMA CAR T cells used in the study were produced as described in Example 1.
The effects of anti-BCMA CAR-T cells in combination with Compound A was assessed in a murine orthotopic tumor model using DF-15(R) cells, which is a tumor model that is resistant to the immunomodulatory compound. Mice (NOD.Cg-Prkdc^scidIL-2rg^tm1Wj1/SzJ mice (NSG; Jackson Labs)) were injected intravenously (i.v.) with 2×10^6 DF-15(R) (multiple myeloma) cells transfected with firefly luciferase ([…]). Tumor engraftment was allowed to occur for 13 days prior to staging (14 days before CAR-T cell administration) and verified using bioluminescence imaging.
In one study, mice were administered Compound A (1 mg/kg or 3 mg/kg) via oral administration once a day starting from the day before administration of 0.5×10^6 anti-BCMA CAR T cells, and administration of Compound A was continued once a day until 32 days post-CAR T cell administration (concurrent dosing). […]
For bioluminescence imaging (BLI), mice received intraperitoneal (i.p.) injections of luciferin substrate (CaliperLife Sciences, Hopkinton, Mass.) resuspended in PBS (15 μg/g body weight). The average radiance (p/s/cm^2/sr) was determined. Survival of mice treated as described above were assessed and compared over time post-infusion of CAR-expressing T cells. […]
The numbers of CD3+ CAR T cells were determined in the blood at day 6 and day 14 by flow cytometry using antibodies directed against CD3 and the surrogate marker on the CAR-expressing cells.

Aiolos and Ikaros = settings: compared with lenalidomide and pomalidomide; cited from earlier work
Ikaros = assay: Intracellular Ikaros expression in BCMA-bead stimulated anti-BCMA CAR T cells (flow cytometry, MFI); type: cell-based, human
Protocol: A BCMA-Fc fusion protein containing the extracellular domain of human BCMA and a human IgG1Fc was conjugated to beads by covalently coupling to the surface of commercially available tosyl-activated magnetic beads having a diameter of approximately […] (M-450 beads, ThermoFisher, Waltham Mass.) (see e.g. International published PCT App. No. WO2019/027850). Following incubation, anti-BCMA CAR-expressing T cells were stained with antibodies and analyzed by flow cytometry to assess intracellular levels of Ikaros and Aiolos in CD4+CAR+ or CD8+CAR+ cells, as measured by median fluorescence intensity (MFI). Median fluorescence intensity (MFI) values for Ikaros and Aiolos were normalized and calculated as a percentage relative to vehicle control.

[2] = test system: IMiD/CELMoD resistant cell line DF-15R; assay: Rescue: rechallenge of chronically stimulated anti-BCMA CAR T cells with DF-15R; type: cell-based, human; settings: DF-15R rechallenge after 7-day chronic stimulation
Protocol: Studies were undertaken to determine whether Compound A (iberdomide, (S)-3-[4-(4-morpholin-4-ylmethyl-benzyloxy)-1-oxo-1,3-dihydro-isoindol-2-yl]-piperidine-2,6-dione) rescued anti-BCMA CAR T cell function following chronic stimulation. To directly stimulate via CAR engagement to induce chronic stimulation of cells, anti-BCMA CAR T cells were stimulated with BCMA conjugated beads (diameter about 4.5 μm from a 50 μg/ml BCMA-conjugated bead composition, generated as described in Example 9) at a ratio of T cells to beads of 1:1. The cells were then incubated at 37° C., 5% CO2 for 7 days.
To further elucidate the role of Compound A on the target cells compared to the CAR T cell intrinsic effects, the IMiD/CELMoD resistant cell line DF-15R was also used to rechallenge anti-BCMA CAR T cells that had been chronically stimulated for 7 days. Cytolytic activity and cytokine production following the rechallenge were assessed as described above.

## O=C1CC[C@H](N2Cc3c(OCc4ccc(CN5CCOCC5)cc4)cccc3C2=O)C(=O)N1 [Compound A, (S)-3-[4-(4-morpholin-4-ylmethyl-benzyloxy)-1-oxo-1,3-dihydro-isoindol-2-yl]-piperidine-2,6-dione]
RPMI-8226 target cells
  CAR T cytokine production (IL-2, TNFα, IFN-gamma in supernatant): enhanced
[1]; concurrent dosing, 1 or 3 mg/kg oral, FIG. 7A
  tumor burden (BLI) versus anti-BCMA CAR T cells alone: reduce tumor burden
[1]; concurrent dosing, FIG. 7B
  survival versus anti-BCMA CAR T cells alone: improve survival
[1]; concurrent regimen, low and high dose, day 6 and day 14, FIG. 7C
  numbers of CD3+ CAR+ T cells in the blood: statistically significant increase
Aiolos and Ikaros
  efficiency of degrading Aiolos and Ikaros: more efficient at degrading Aiolos and Ikaros than lenalidomide and pomalidomide
Ikaros; CD4+CAR+ or CD8+CAR+ cells, 24 or 72 hours, lenalidomide 1000 nM, Compound A 1, 10, 100 nM, Compound B 0.1, 1, 10 nM
  intracellular Ikaros expression (MFI, percentage relative to vehicle control): concentration dependent decrease
Ikaros; stimulated anti-BCMA CAR T cells
  potency in decreasing Ikaros and Aiolos expression, compared with lenalidomide: more potent than lenalidomide
[2]; Compound A 1 or 10 nM, FIG. 11A
  cytolytic activity: increased cytolytic activity
[2]; FIG. 11B-D
  cytokine production (IFN-gamma, IL-2, TNF-alpha): increased

— patent US20230165872A1, “COMBINATION OF BCMA-DIRECTED T CELL THERAPY AND AN IMMUNOMODULATORY COMPOUND” (Juno Therapeutics, Inc., priority 2020, published 2023)
